Results on two substances are retold here after paper PMC9144936, “New Cu^+2 Complexes with N-Sulfonamide Ligands: Potential Antitumor, Antibacterial, and Antioxidant Agents” (Molecules, 2022).

For data set [1], the system named is Escherichia coli ATCC 10536. Briefly: MIC, serial broth microdilution, E. coli. It is filed as cell-based. Particulars: 24 h, 37 °C. On the procedure: (§1) The values of MIC, defined as the lowest concentration of antimicrobial complex that prevents visible growth of germs, are presented in Table S4 in the Supplementary Material. To quantify the copper complexes effectiveness as antibacterial agents, their minimum inhibitory concentrations (MICs) were determined using the serial broth microdilution method described by Quinn et al. and Markey et al.. The method was adapted for the purposes of the current study, according to the standards developed by the Clinical and Laboratory Standards Institute. The tests were performed on the same Gram-positive and Gram-negative reference microbial strains. Ten successive dilutions of the copper complexes solutions (1/2 to 1/1024) in nutrient broth (Merck KGaA, Darmstadt, Germany) were performed and then were placed in sterile microplates (one each for every copper complex). The microplates were incubated at 37 ± 2 °C for 24 h. Comparisons of the amount of bacterial growth in each well containing copper complexes solutions with the amount of growth in the growth control wells were performed and the maximal dilution for which the tested copper complexes inhibited bacterial growth was determined.
A general note: Broth dilution looks for growth in wells or tubes with falling amounts of substance.

Data set [2] has as its system Pseudomonas aeruginosa ATCC 27853. Nature of the data set: MIC, serial broth microdilution, P. aeruginosa. It is filed as cell-based. The conditions noted are these: 24 h, 37 °C. On the procedure: as §1
For a further data set, the system named is supercoiled pUC18 DNA. Briefly: DNA cleavage (nuclease activity), agarose gel electrophoresis with H2O2/ascorbic acid. It is filed as biochemical. The conditions noted are these: 37 °C; for effect of sodium azide on the ability to destroy the nucleic acid molecule: complex 10 μM, ascorbic acid/H2O2, 1 h, NaN3 400 mM; for concentration at which the circular shape of DNA appears / concentration at which the linear shape of DNA appears: pUC18, cacodylate buffer 0.1 M pH 6.0, H2O2/ascorbic acid, 1 h. The text has this:
The activity of the complexes as chemical nucleases was studied using supercoiled pUC18 DNA in cacodylate buffer (0.1M, pH 6.0) in the presence of H2O2/ascorbic acid, with a 3.0-fold excess relative to the complex concentration. The efficiency of the complexes was compared with that of both copper sulfate and bis(o-phenanthroline) Cu^+2 complex under the same reaction conditions.
The nuclease activity of the complexes C1 and C2 was studied in the presence of certain inhibiting agents: DMSO, t-butyl alcohol, distamycin, sodium azide, 2,2,6,6-tetramethyl-4-piperidone, superoxide dismutase, and neocuproine, in an attempt to determine the ROS involved in the degradation process of the DNA molecule. We chose a concentration of 10 μM for the complexes and a concentration […] for the reducing agents ascorbic acid/H2O2. The incubation period of the samples was 1 h, at 37 °C. The resulting electropherograms are presented in Figure S8 in the Supplementary Material.
Reactions were performed by mixing 7 μL of cacodylate buffer 0.1 M, pH 6 (cacodylic acid/sodium cacodylate), 6 μL of complex solution (final concentrations: 5, 10, 15, and 20 μM), 1 μL of pUC18 DNA solution (0.25 μg/μL, 750 μM in base pairs), and 6 μL of activating agent solution (H2O2/ascorbic acid) in a 3-fold molar excess relative to the concentration of the complex. The resulting solutions were incubated for 1 h at 37 °C, after which a quench buffer solution (3 μL) consisting of bromophenol blue (0.25%), xylene cyanol (0.25%), and glycerol (30%) was added. The solution was then subjected to electrophoresis on 0.8% agarose gel in 0.5 × TBE buffer (0.045 M Tris, 0.045 M boric acid, and 1 mM EDTA) containing 5 μL/100 mL of a solution of ethidium bromide (10 mg/mL) at 100 V for 2 h. The bands were photographed on a capturing system (Gelprinter Plus TDI).
To test for the presence of reactive oxygen species (ROS) generated during strand scission and for possible complex–DNA interaction sites, various reactive oxygen intermediate scavengers and groove binders were added to the reaction mixtures. The scavengers used were 2,2,6,6-tetramethyl-4-piperidone (0.5 M), dimethylsulfoxide (DMSO) 14 M, t-butyl alcohol (10.5 M), sodium azide (NaN3) (400 mM), and superoxide dismutase (SOD) (15 units). In addition, a chelating agent of copper(I) and neocuproine (36 μM), along with the groove binder distamycin (80 μM) were also assayed. Samples were treated as described above.

A further data set has as its system Swiss mice. Particulars: mouse, in vivo, ip, 150 mg/kg/day. On the procedure: This study was carried out for a period of 2 weeks on 10 adult Swiss mice, with 5 males and 5 females.
A subacute toxicity study was carried out for a period of 2 weeks for the C2 complex. In total, 10 adult Swiss mice, 32.26 ± 1.3 g body weight, with 5 males and 5 females, were used. The mice were caged in standard polypropylene cages, in standard laboratory conditions (12 h light/dark cycle, temperature 25 ± 1 °C, and relative humidity 55 ± 5%). Standard lab chow, provided by the “Cantacuzino” National Insitute for Research and Development Bucharest, and water were freely available. All procedures performed on mice complied with the European Directive 2010/63/EU and the national low 43/2014 for Protection of Animals Used for Scientific Purposes. This study was approved by the Bioethical Board of the Faculty of Veterinary Medicine Cluj-Napoca (accord no.290/22.11.2021) and the Veterinary Sanitary Direction and Food Safety (accord no.284/21.12.2021). All mice received i.p. 150 mg complex C2/kg b.w./day, for 2 weeks. […]
The general clinical status and the body weight were recorded daily. […]
The liver and kidneys were also removed. […] To determine the hematological toxicity, erythrogram, leukogram, and thrombogram were assessed using a Diatron Abascus Junior Vet 3.

The MIC is the lowest concentration found to suppress growth. The low end stands for inhibition by little substance, the high end for a need for much substance.

“[Cu(N-(5-(4-Methylphenyl)-[1,3,4]-Thiadiazole-2-yl) Naphtalenesulfonamidate)2(H2O)3] [C1]”: the minimal inhibitory concentration (MIC) in data set [1] is 0.231 µg/mL. This substance also gave an MIC in data set [2] of 0.196 µg/mL. In the data set on supercoiled pUC18 DNA, the “effect of sodium azide on the ability to destroy the nucleic acid molecule” value is reported as “little effect”, the “concentration at which the circular shape of DNA appears” value is 15 µM and the “concentration at which the linear shape of DNA appears” value stood at 20 µM.
As for “[Cu(N-(5-Ethyl--[1,3,4]-Thiadiazole-2-yl) Naphtalenesulfonamidate)2(py)2(H2O)] [C2]”, the MIC in data set [1] stood at 0.184 µg/mL. Moreover, the minimal inhibitory concentration (MIC) in data set [2] is 0.089 µg/mL. In addition, in the data set with Swiss mice, the clinical changes entry is recorded as “did not undergo clinical changes”; the “histological analyses of kidney and liver” value was “normal structure”. Further, in the data set on supercoiled pUC18 DNA, the “effect of sodium azide on the ability to destroy the nucleic acid molecule” value was “little effect”, the “concentration at which the circular shape of DNA appears” value worked out at 10 µM and the “concentration at which the linear shape of DNA appears” value is 15 µM.
